{"source": "patent US6262051A", "about": "“Fungicidal methoximinomethyldioxazines” (Bayer Aktiengesellschaft, priority 1997, dated 2001)", "key": {"[1]": {"system": "Sphaerotheca fuliginea", "assay": "Example E: Sphaerotheca test (cucumber)/protective", "type": "in vivo", "details": "protective, 100 g/ha, 10 days after inoculation, vs untreated control", "protocol": "(§1) Sphaerotheca test (cucumber)/protective Solvent: 47 parts by weight of acetone Emulsifier: 3 parts by weight of alkylaryl polyglycol ether To produce a suitable preparation of active compound, 1 part by weight of active compound is mixed with the stated amount of solvent and emulsifier, and the concentrate is diluted with water to the desired concentration. To test for protective activity, young plants are sprayed with the preparation of active compound at the stated application rate. After the spray coating is dried on, the plants are inoculated with an aqueous spore suspension of Sphaerotheca fuliginea."}, "[2]": {"assay": "HPLC logP", "type": "physicochemical"}, "[3]": {"system": "Erysiphe graminis f.sp. hordei", "assay": "Example B: Erysiphe test (barley)/curative", "type": "in vivo", "details": "curative (sprayed 48 hours after inoculation), 250 g/ha, 7 days after inoculation, vs untreated control", "protocol": "(§2) Erysiphe test (barley)/curative Solvent: 10 parts by weight of N-methyl-pyrrolidone Emulsifier: 0.6 part by weight of alkylaryl polyglycol ether To produce a suitable preparation of active compound, 1 part by weight of active compound is mixed with the stated amount of solvent and emulsifier, and the concentrate is diluted with water to the desired concentration. To test for curative activity, young plants are dusted with spores of Erysiphe graminis f.sp. hordei. 48 hours after the inoculation, the plants are sprayed with the preparation of active compound at the stated application rate. The plants are placed in a greenhouse at a temperature of approximately 20° C. and a relative atmospheric humidity of approximately 80% to promote the development of mildew postures."}, "[4]": {"system": "Pyricularia oryzae", "type": "in vivo", "details": "rice, protective; 750 g/ha; 4 days after inoculation; vs untreated control"}, "[5]": {"system": "Plasmopara viticola", "assay": "Example D: Plasmopara test (grapevine)/protective", "type": "in vivo", "details": "Plasmopara viticola, 144 h, protective, 6 days after inoculation, vs untreated control, read-out: Efficacy in %", "protocol": "as §1, with “Plasmopara” for “Sphaerotheca”, “(grapevine)/protective” for “(cucumber)/protective”, “After the spray coating is dried on, the plants are inoculated with an aqueous spore suspension of Sphaerotheca fuliginea.” left out"}, "[6]": {"system": "Erysiphe graminis f.sp. hordei", "assay": "Example A: Erysiphe test (barley)/protective (N-methyl-pyrrolidone)", "type": "in vivo", "details": "protective, 250 g/ha, 7 days after inoculation, vs untreated control", "protocol": "as §2, with “test (barley)/protective” for “test (barley)/curative”, “0.6 parts” for “0.6 part”, “for protective” for “for curative”, “young” for “young plants are dusted with spores of Erysiphe graminis f.sp. hordei. 48 hours after the inoculation, the”, “rate. After the spray coating has dried on, the plants are dusted with spores of Erysiphe graminis f.sp. hordei.” for “rate.”, “mildew postules.” for “mildew postures.”"}, "[7]": {"system": "Erysiphe graminis f.sp. hordei", "assay": "Example C: Erysiphe test (barley)/protective (N,N-dimethylacetamide)", "type": "in vivo", "details": "protective, solvent N,N-dimethylacetamide, 250 g/ha, 7 days after inoculation, vs untreated control", "protocol": "Erysiphe test (barley)/protective Solvent: 25 parts by weight of N,N-dimethylacetamide Emulsifier: 0.6 part by weight of alkylaryl polyglycol ether To produce a suitable preparation of active compound, 1 part by weight of active compound is mixed with the stated amount of solvent and emulsifier, and the concentrate is diluted with water to the desired concentration. To test for protective activity, young plants are sprayed with the preparation of active compound at the stated application rate. After the spray coating has dried on, the plants are dusted with spores of Erysiphe graminis f.sp. hordei. The plants are placed in a greenhouse at a temperature of approximately 20° C. and a relative atmospheric humidity of approximately 80% to promote the development of mildew postules."}}, "note": "Read-outs that look alike come from different tables or passages of the source.", "data": [{"smiles": "CON=C(C1=NOCCO1)c1ccccc1Oc1nccc(OCC(F)(F)C(F)(F)F)n1", "note": "[drawing 43]", "values": [{"measurement": "Efficacy in %", "setting": "[1]", "result": 92, "unit": "%"}]}, {"smiles": "CCCOc1ccnc(Oc2ccccc2C(=NOC)C2=NOCCO2)n1", "note": "[Example 6]", "values": [{"measurement": "chromatographic logP", "setting": "[2]; Table 1", "result": 2.5}, {"measurement": "Efficacy in %", "setting": "[3]", "result": 100, "unit": "%"}, {"measurement": "Efficacy in %", "setting": "[1]", "result": "more than 90%"}, {"measurement": "Efficacy in %", "setting": "[4]", "result": "at least 70%"}]}, {"smiles": "CON=C(C1=NOCCO1)c1ccccc1Oc1nccc(OCC(Cl)(Cl)Cl)n1", "note": "[Example 2, (5,6-dihydro-[1,4,2]dioxazin-3-yl)-{2-[4-(2,2,2-trichloroethoxy)-pyrimidine-2-yloxy]-phenyl}-methanone O-methyl oxime]", "values": [{"measurement": "chromatographic logP", "setting": "[2]", "result": 3.1}, {"measurement": "Efficacy in %", "setting": "[1]", "result": "more than 90%"}, {"measurement": "pest or weed control at 100 g/ha", "setting": "[5]", "result": "≤ 100", "unit": "%"}]}, {"smiles": "CCOc1ccnc(Oc2ccccc2C(=NOC)C2=NOCCO2)n1", "note": "[Example 5]", "values": [{"measurement": "chromatographic logP", "setting": "[2]; Table 1", "result": 2.2}, {"measurement": "Efficacy in %", "setting": "[4]", "result": "at least 70%"}]}, {"smiles": "CON=C(C1=NOCCO1)c1ccccc1Oc1nccc(OCC(F)(F)C(F)(F)F)n1", "note": "[Example 8]", "values": [{"measurement": "chromatographic logP", "setting": "[2]; Table 1", "result": 3.1}, {"measurement": "Efficacy in %", "setting": "[1]", "result": "more than 90%"}, {"measurement": "pest or weed control at 100 g/ha", "setting": "[5]", "result": "≤ 100", "unit": "%"}]}, {"smiles": "CON=C(C1=NOCCO1)c1ccccc1Oc1nccc(OCC(F)(F)F)n1", "note": "[Example 3]", "values": [{"measurement": "chromatographic logP", "setting": "[2]; Table 1", "result": 2.6}, {"measurement": "Efficacy in %", "setting": "[3]", "result": 100, "unit": "%"}, {"measurement": "Efficacy in %", "setting": "[4]", "result": "at least 70%"}, {"measurement": "pest or weed control at 100 g/ha", "setting": "[5]", "result": "≤ 100", "unit": "%"}, {"measurement": "Efficacy in %", "setting": "[6]", "result": 100, "unit": "%"}]}, {"smiles": "CCCCCCOc1ccnc(Oc2ccccc2C(=NOC)C2=NOCCO2)n1", "note": "[Example 13]", "values": [{"measurement": "chromatographic logP", "setting": "[2]; Table 1", "result": 3.8}, {"measurement": "Efficacy in %", "setting": "[7]", "result": 100, "unit": "%"}, {"measurement": "pest or weed control at 100 g/ha", "setting": "[5]", "result": "≤ 100", "unit": "%"}]}, {"smiles": "CON=C(C1=NOCCO1)c1ccccc1Oc1nccc(OCC(Br)(Br)Br)n1", "note": "[Example 11]", "values": [{"measurement": "chromatographic logP", "setting": "[2]; Table 1", "result": 3.2}, {"measurement": "pest or weed control at 100 g/ha", "setting": "[5]", "result": "≤ 100", "unit": "%"}]}]}
